# Experimental data taken from ChEMBL document CHEMBL5252641, “Design, synthesis, and evaluation of benzofuran-based chromenochalcones for antihyperglycemic and antidyslipidemic activities” (RSC Med Chem, 2023).
# Calls of active or inactive are those of the source. No cut-off for these calls is given here.
# Columns and labels:
# [1] = Antioxidant activity assessed as hydroxyl radical scavenging activity at 100 uM incubated for 90 mins by spectrophotometric analysis; assay type: functional
# Syrian golden hamster [2] = test: Antidyslipidemic activity in Triton-induced hyperlipidemic Syrian golden hamster model assessed as decrease in PL level at 50 mg/kg measured after 18 hrs; assay type: functional, Mesocricetus auratus; design: scale not given: the % may be the effect or the level left
# L6 [3] = test: Induction of glucose uptake in rat L6 cells expressing GLUT4 myc epitopes at 10 uM incubated for 24 hrs by scintillation counting method relative to control; assay type: functional
# Syrian golden hamster [4] = test: Antidyslipidemic activity in Triton-induced hyperlipidemic Syrian golden hamster model assessed as increase in post-heparin lipolytic activity at 50 mg/kg measured after 18 hrs; assay type: functional, Mesocricetus auratus
# Syrian golden hamster [5] = test: Antidyslipidemic activity in Triton-induced hyperlipidemic Syrian golden hamster model assessed as decrease in total cholesterol level at 50 mg/kg measured after 18 hrs; assay type: functional, Mesocricetus auratus; design: scale not given: the % may be the effect or the level left
# Syrian golden hamster [6] = test: Antidyslipidemic activity in Triton-induced hyperlipidemic Syrian golden hamster model assessed as decrease in triglyceride level at 50 mg/kg measured after 18 hrs; assay type: functional, Mesocricetus auratus; design: scale not given: the % may be the effect or the level left
# Rattus norvegicus [7] = test: Antidiabetic activity in streptozotocin induced hyperglycemic Wistar rat model assessed as improvement in blood glucose level at 100 mg/kg,po measured upto 5 hrs relative to control; assay type: functional
# Rattus norvegicus [8] = test: Antidiabetic activity in streptozotocin induced hyperglycemic Wistar rat model assessed as improvement in blood glucose level at 100 mg/kg,po measured upto 24 hrs relative to control; assay type: functional
# [9] = Antioxidant activity assessed as superoxide anion radical scavenging activity at 100 uM incubated for 30 mins by spectrophotometric analysis; assay type: functional
# Syrian golden hamster [10] = test: Antidyslipidemic activity in Triton-induced hyperlipidemic Syrian golden hamster model assessed as increase in lecithin-cholesterol acyltransferase level at 50 mg/kg measured after 18 hrs; assay type: functional, Mesocricetus auratus
# L6 [11] = test: Induction of glucose uptake in rat L6 cells expressing GLUT4 myc epitopes at 5 uM incubated for 24 hrs by scintillation counting method relative to control; assay type: functional
# L6 [12] = test: Induction of GLUT4myc translocation to rat L6 cells surface measured after 16 hrs by colorimetric assay; assay type: functional, cell-based; settings: dose 5-25 µM
# L6 [13] = test: Cytotoxicity against rat L6 cells assessed as reduction in cell viability at 5 to 100 uM incubated overnight by MTT assay; assay type: toxicity, cell-based; settings: l6, 100 µM, dose 5-100 µM
# L6 [14] = test: Induction of insulin stimulated glucose uptake in rat L6 cells expressing GLUT4 myc epitopes at 10 uM preincubated for 16 hrs followed by 3 hrs incubation under serum deprived medium prior to insulin stimulation for 20 mins; assay type: functional, cell-based; settings: time 1160.0 min
# L6 [15] = test: Induction of GLUT4myc translocation to rat L6 cells surface at 5 to 25 uM incubated for 20 mins followed by insulin stimulation by colorimetric assay; assay type: functional, cell-based; settings: dose 5-25 µM
Structure (SMILES),Activity [1],Activity (Syrian golden hamster [2]),Activity (L6 [3]),Activity (Syrian golden hamster [4]),Activity (Syrian golden hamster [5]),Activity (Syrian golden hamster [6]),Activity (Rattus norvegicus [7]),Activity (Rattus norvegicus [8]),Activity [9],Activity (Syrian golden hamster [10]),Activity (L6 [11]),Activity (L6 [12]),Activity (L6 [13]),Activity (L6 [14]),Activity (L6 [15])
OC[C@@H](O)[C@@H](O)[C@H](O)[C@H](O)CO,39,,,,,,,,,,,,,,
CC1(C)C=Cc2c(O)c(C(=O)/C=C/c3ccc4occc4c3)c3c(c2O1)C=CC(C)(C)O3,12,13%,124%,22%,11%,19%,2.3%,0.81%,16,15%,,,,,
CC1(C)C=Cc2c(O)c(C(=O)/C=C/c3ccc4oc(C(=O)c5ccccc5)cc4c3)c3c(c2O1)C=CC(C)(C)O3,11,16%,26.5%,23%,10%,18%,,,15,14%,,,,,
Cc1ccc(C)c(OCCCC(C)(C)C(=O)O)c1 [GEMFIBROZIL],,34%,,41%,38%,36%,,,,42%,,,,,
CC(C)=CCCC1(C)C=Cc2c(ccc(C(=O)/C=C/c3ccc4occc4c3)c2O)O1 (centres undefined),16,19%,188%,21%,16%,11%,19.2%,17.2%,14,20%,73.5%,,,,
CN(CCOc1ccc(CC2SC(=O)NC2=O)cc1)c1ccccn1 (centres undefined) [ROSIGLITAZONE],,,96.5%,,,,,,,,,,,,
COc1ccc(C(=O)c2cc3cc(/C=C/C(=O)c4c(O)ccc5c4OC(C)(C)C=C5)ccc3o2)cc1,7,11%,220.5%,17%,10%,13%,18.7%,16.8%,10,12%,93%,Dose-Dependent Effect,Non-Toxic,inactive,Active
Cc1ccc(C(=O)c2cc3cc(/C=C/C(=O)c4c(O)ccc5c4OC(C)(C)C=C5)ccc3o2)cc1,18,11%,72.9%,19%,16%,15%,,,13,20%,,,,,
CC(C)=CCCC1(C)C=Cc2ccc(O)c(C(=O)/C=C/c3ccc4oc(C(=O)c5ccc(C)cc5)cc4c3)c2O1 (centres undefined),11,17%,47.4%,22%,18%,14%,,,19,22%,,,,,
CN(C)C(=N)NC(=N)N [METFORMIN],,,,,,,30.5%,27.9%,,,,,,,
Cc1ccc(C(=O)c2cc3cc(/C=C/C(=O)c4ccc5c(c4O)C=CC(C)(C)O5)ccc3o2)cc1,10,11%,53.1%,18%,13%,13%,,,11,17%,,,,,
COc1ccc(C(=O)c2cc3cc(/C=C/C(=O)c4c(O)c5c(c6c4OC(C)(C)C=C6)OC(C)(C)C=C5)ccc3o2)cc1,17,13%,22%,21%,9%,15%,,,12,12%,,,,,
CC1(C)C=Cc2c(ccc(C(=O)/C=C/c3ccc4occc4c3)c2O)O1,12,10%,161.5%,19%,13%,15%,,,16,17%,96%,,,,
